Assay results reported in US20240180888A1, “C5AR1 INHIBITORS FOR TREATING […] REACTIONS TO TAXANES” (Dompe' Farmaceutici SPA, priority 2021, published 2024).
Read-outs that look alike come from different tables or passages of the source.

How the values were obtained:
[1] = molecular target: T1, complement component 5a receptor 1 (C5aR1) (Homo sapiens, UniProt P21730); test: BIAcore SPR binding to C5aR1 immobilised on sensorchip CM5 via c-Myc-tag
T1 construct: purchased OriGene TP303784
T1 sequence (P21730 1-350): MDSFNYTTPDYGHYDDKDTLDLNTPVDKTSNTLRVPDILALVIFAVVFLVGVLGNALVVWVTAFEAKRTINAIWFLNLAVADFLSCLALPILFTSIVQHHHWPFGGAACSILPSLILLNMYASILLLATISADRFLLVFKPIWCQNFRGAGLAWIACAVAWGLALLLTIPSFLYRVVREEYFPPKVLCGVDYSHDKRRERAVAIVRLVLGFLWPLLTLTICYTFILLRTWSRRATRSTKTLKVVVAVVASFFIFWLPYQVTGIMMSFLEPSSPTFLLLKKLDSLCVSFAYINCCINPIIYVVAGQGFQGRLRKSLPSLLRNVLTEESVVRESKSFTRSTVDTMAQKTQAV
Source text: (§1) BIAcore technology was used to analyze the interaction between Paclitaxel and complement component 5a receptor 1 (C5aR1) (Example 1), complement component 5a receptor 2 (C5AR2) (Example 2) or complement component 5a (Example 3).
(§2) The BIAcore systems exploit the phenomenon of Surface Plasmon Resonance (SPR) to monitor interactions between molecules in real time. Briefly, SPR phenomenon occurs in thin conducting films at an interface between media of different refractive index. In BIAcore systems, the media are the glass of the sensorchip and the sample solution, and the conducting film is a thin layer of gold on the sensorchip surface. BIAcore monitors the interaction between two molecules, one attached to the sensor surface, called ligand, and the other one free in solution, and called analyte.
An anti-c-Myc antibody (9E10, sc-40, Santa Cruz Technology) was immobilized on a sensorchip CM5 (#29149604, Cytiva). In details, the antibody was diluted at a concentration of 50 μg/ml in 10 mM acetate buffer at pH 4.5, and injected over the surface of the sensorchip. In details, the dextran matrix on the sensorchip surface was first activated with a mixture of […] (EDC) and N-hydroxysuccinimide (NHS) to give reactive succinimide esters. Anti-Myc antibodies were then passed over the surface and the esters reacted spontaneously with uncharged amino groups to covalently link the ligand to the dextran. Then, the surface was deactivated by ethanolamine-HCl.
Once the antibody was immobilized, the receptor was captured on the surface of the sensorchip. This procedure allowed the immobilization of the ligand of interest in an oriented way. In particular, C5AR1-cMyc (TP303784, OriGene) at a concentration of 20 μg/ml in Running Buffer (50 mM HEPES buffer, pH 7.0 containing 0.01% CHS, 0.1% CHAPS, and 0.33 mM of lipids) was injected onto the sensorchip prepared above with a flow rate of 5 μI/min.
In details, 5 μM C5a (A144, Complement Technologies) in Running Buffer was injected on C5aR1 surface of sensorchip prepared in Example 1a).
To first evaluate a direct binding of Paclitaxel and C5aR1, the compound was injected on the C5aR1 surface of the sensorchip prepared in Example 1a) at a concentration of 300 μM in Running Buffer.
Running Buffer at different concentrations (from 4.06 to 37.5 μM), injected on the sensorchip for 4 minutes and allowed to dissociate for 5 minutes, flowing Running Buffer without Paclitaxel. In this way, the kinetic constant was evaluated as a function of time.
Also, the affinity value at equilibrium of Paclitaxel/Myc-05aR1 interaction was determined by measuring the steady-state binding levels, through a Scatchard analysis of the RU values at equilibrium.

complement component 5a = molecular target: T2, complement component 5a (Homo sapiens, UniProt P01031); test: BIAcore SPR binding to C5a immobilised on sensorchip CM5; details: 300 microM in Running Buffer
T2 sequence (P01031 678-751 limits assumed): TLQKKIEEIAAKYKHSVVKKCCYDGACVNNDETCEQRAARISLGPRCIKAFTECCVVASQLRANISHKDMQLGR
Source text: as §1, §2
C5a was immobilized on a sensorchip (#29149604, Cytiva). In details, 20 microg/ml of recombinant protein C5a was diluted in 10 mM acetate buffer at pH 4.5 and injected over the surface of the sensorchip. Activation and deactivation of sensorchip were performed as described in Example 1a).
Paclitaxel was injected on the C5A surface of the sensorchip prepared in Example 2a) at a concentration of 300 microM in Running Buffer.RU can be detected by BIAcore.

Row | Molecule | Paclitaxel bound to immobilised C5aR1, resonance units ([1]; 300 μM in Running Buffer) | Kd ([1]; 4.06 to 37.5 μM, 4 minutes injection, 5 minutes dissociation, read-out: Kd value (kinetic evaluation)) | Kd ([1]; steady-state RU as a function of analyte concentration, read-out: affinity constant at equilibrium (steady-state binding levels, Scatchard analysis)) | binding to immobilised C5a (complement component 5a) | binding to immobilised C5aR1 ([1]; 5 μM in Running Buffer)
1 | CC(=O)O[C@H]1C(=O)[C@@]2(C)[C@H]([C@H](OC(=O)c3ccccc3)[C@]3(O)C[C@H](OC(=O)[C@H](O)[C@@H](NC(=O)c4ccccc4)c4ccccc4)C(C)=C1C3(C)C)[C@]1(OC(C)=O)CO[C@@H]1C[C@@H]2O [Paclitaxel] | 300 RU | 670 nM | 525 nM | not able to bind | 
2 | C5a: anaphylatoxin, pro-inflammatory polypeptide, the natural ligand of the receptor C5aR1 (protein, UniProt P01031 678-751, looked up, C5a anaphylatoxin, anaphylatoxin, pro-inflammatory polypeptide, the natural ligand of the receptor C5aR1) C5a anaphylatoxin: TLQKKIEEIAAKYKHSVVKKCCYDGACVNNDETCEQRAARISLGPRCIKAFTECCVVASQLRANISHKDMQLGR |  |  |  |  | can bind
